Assays:
Experiment in all cases: combination Emax (second highest fraction inhibited in the dose matrix, 72 h); higher = more inhibition; extreme values may be limits of the assay
[1] = system: BxPC-3 (Pancreatic Carcinoma)
Outline: (§1)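 Cell lines in DMEM/F12 or RPMI with 10% FBS were plated in 1536-well plates, held 24 hours at 37°C, 5% CO2, then given two-drug dose matrices for 72 hours (DMSO typically 0.2%). Viability was read by CellTiter-Glo 2.0 luminescence and scaled as inhibition from 0 (vehicle wells) to 1 (blank wells). Combination Emax is the second-highest inhibition in the matrix; Bliss excess is observed combination effect minus expected EA + EB − EA·EB, EA and EB being single-agent effects.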

[2] = system: C-33-A (Cervical Carcinoma)
Outline: as §1

[3] = system: COR-L88 (Small Cell Lung Carcinoma)
Outline: as §1

[4] = system: GAK (Melanoma)
Outline: as §1

[5] = system: HPAF-II (Pancreatic Carcinoma)
Outline: as §1

[6] = system: IA-LM (Non-Small Cell Lung Carcinoma)
Outline: as §1

[7] = system: KALS-1 (Glioblastoma)
Outline: as §1

[8] = system: LCLC-103H (Non-Small Cell Lung Carcinoma)
Outline: as §1

[9] = system: LS-1034 (Colorectal Carcinoma)
Outline: as §1

[10] = system: MDA-MB-415 (Breast Carcinoma)
Outline: as §1

[11] = system: NCI-H226 (Mesothelioma)
Outline: as §1

[12] = system: NCI-H3118 (Head and Neck Carcinoma)
Outline: as §1

[13] = system: RCC-JW (Kidney Carcinoma)
Outline: as §1

[14] = system: SCC-4 (Oral Cavity Carcinoma)
Outline: as §1

[15] = system: SK-CO-1 (Colorectal Carcinoma)
Outline: as §1

[16] = system: SK-N-SH (Neuroblastoma)
Outline: as §1

[17] = system: SKG-IIIa (Cervical Carcinoma)
Outline: as §1

[18] = system: SNU-423 (Hepatocellular Carcinoma)
Outline: as §1

[19] = system: T84 (Colorectal Carcinoma)
Outline: as §1

[20] = system: ZR-75-30 (Breast Carcinoma)
Outline: as §1

| Structure (SMILES) | combination Emax [1] | combination Emax [2] | combination Emax [3] | combination Emax [4] | combination Emax [5] | combination Emax [6] | combination Emax [7] | combination Emax [8] | combination Emax [9] | combination Emax [10] | combination Emax [11] | combination Emax [12] | combination Emax [13] | combination Emax [14] | combination Emax [15] | combination Emax [16] | combination Emax [17] | combination Emax [18] | combination Emax [19] | combination Emax [20] |
| --- | --- | --- | --- | --- | --- | --- | --- | --- | --- | --- | --- | --- | --- | --- | --- | --- | --- | --- | --- | --- |
| O=C(c1cc(Cc2n[nH]c(=O)c3ccccc23)ccc1F)N1CCN(C(=O)C2CC2)CC1 [Olaparib] + CN(CC[C@H](CSC1=CC=CC=C1)NC2=C(C=C(C=C2)S(=O)(=O)NC(=O)C3=CC=C(C=C3)N4CCC(CC4)[C@H](C5=CC=CC=C5C6=CC=C(C=C6)Cl)O)S(=O)(=O)C(F)(F)F)CCO [AZD4320] (first compound max 10 µM, 7x7, partner max 1 µM) | 0.148 | 0.386 | 0.961 | 0.146 | 0.796 | 0.328 | 0.156 | 0.224 | 0.0945 | 0.553 | 0.105 | 0.155 | 0.787 | 0.338 | 0.949 | 0.688 | 0.137 | 0.236 | 0.122 | 0.149 |
| O=C(c1cc(Cc2n[nH]c(=O)c3ccccc23)ccc1F)N1CCN(C(=O)C2CC2)CC1 [Olaparib] + COc1nnc2ccc(N3CCC(c4ccc(OCCN5CCN(C)C(=O)[C@H]5C)cc4)CC3)nn12 [AZD5153] (first compound max 10 µM, 7x7, partner max 1 µM) | 0.403 | 0.484 | 0.214 | 0.451 | 0.334 | 0.352 | 0.548 | 0.343 | 0.453 | 0.362 | 0.376 | 0.519 | 0.38 | 0.322 | 0.7 | 0.428 | 0.385 | 0.302 | 0.0881 | 0.207 |
| O=C(c1cc(Cc2n[nH]c(=O)c3ccccc23)ccc1F)N1CCN(C(=O)C2CC2)CC1 [Olaparib] + Cc1c2c(nn1C)CSCc1cc(n(C)n1)CSc1cc(c3ccccc3c1)OCCCc1c(C(=O)O)n(C)c3c-2c(Cl)ccc13 [AZD5991] (first compound max 10 µM, 7x7, partner max 1 µM) | 0.043 | 0.329 | 0.227 | 0.0885 | 0.0669 | 0.0022 | 0.163 | 0.192 | 0.0008 | 0.339 | 0.107 | 0.352 | 0.163 | 0.128 | 0.785 | 0.333 | 0.128 | 0.16 | 0.111 | 0.197 |
| N#Cc1cnc(Nc2cc(NC[C@H]3CNCCO3)c(C(F)(F)F)cn2)cn1 [SRA737] + C=CCn1c(=O)c2cnc(Nc3ccc(N4CCN(C)CC4)cc3)nc2n1-c1cccc(C(C)(C)O)n1 [AZD1775] (first compound max 10 µM, partner max 1 µM) | 0.613 | 0.97 | 0.685 | 0.841 | 0.495 | 0.311 | 0.927 | 0.711 | 0.809 | 0.318 | 0.226 | 0.876 | 0.456 | 0.64 | 0.631 | 0.804 | 0.465 | 0.648 | 0.853 | 0.266 |
| N#Cc1cnc(Nc2cc(NC[C@H]3CNCCO3)c(C(F)(F)F)cn2)cn1 [SRA737] + CCc1c2c(nc3ccc(O)cc13)-c1cc3c(c(=O)n1C2)COC(=O)[C@]3(O)CC [SN-38] (first compound max 10 µM, 7x7, partner max 0.3 µM) | 0.671 | 0.943 | 0.645 | 0.585 | 0.547 | 0.675 | 0.928 | 0.817 | 0.873 | 0.431 | 0.248 | 0.763 | 0.574 | 0.893 | 0.893 | 0.892 | 0.592 | 0.648 | 0.815 | 0.124 |
| N#Cc1cnc(Nc2cc(NC[C@H]3CNCCO3)c(C(F)(F)F)cn2)cn1 [SRA737] + Nc1ccn([C@@H]2O[C@H](CO)[C@@H](O)C2(F)F)c(=O)n1 [Gemcitabine] (first compound max 10 µM, 7x7, partner max 0.3 µM) | 0.644 | 0.951 | 0.617 | 0.506 | 0.61 | 0.373 | 0.87 | 0.844 | 0.919 | 0.638 | 0.462 | 0.772 | 0.868 | 0.758 | 0.899 | 0.852 | 0.575 | 0.745 | 0.827 | 0.312 |
| N#Cc1cnc(Nc2cc(NC[C@H]3CNCCO3)c(C(F)(F)F)cn2)cn1 [SRA737] + O=c1[nH]cc(F)c(=O)[nH]1 [5-Fluorouracil] (first compound max 10 µM, 7x7, partner max 20 µM) | 0.555 | 0.478 | 0.435 | 0.448 | 0.436 | 0.0378 | 0.792 | 0.559 | 0.77 | 0.381 | 0.145 | 0.575 | 0.21 | 0.628 | 0.654 | 0.57 | 0.34 | 0.477 | 0.785 | 0.169 |
| Cc1nc(-c2cn3c(n2)-c2ccc(-c4cnn(C(C)(C)C(N)=O)c4)cc2OCC3)n(C(C)C)n1 [Taselisib] + O=C(Nc1ccc2[nH]nc(-c3ccncc3)c2c1)[C@@H]1CCN(CC(=O)N2CCN(c3ccc(-c4ncccn4)cc3)CC2)C1 [SCH772984] (first compound max 10 µM, 7x7, partner max 5 µM) | 0.956 | 0.661 | 0.229 | 0.944 | 0.917 | 0.399 | 0.927 | 0.472 | 0.72 | 0.846 | 0.393 | 0.931 | 0.638 | 0.911 | 0.975 | 0.72 | 0.633 | 0.82 | 0.96 | 0.706 |
| CC1(C)CCC(CN2CCN(c3ccc(C(=O)NS(=O)(=O)c4ccc(NCC5CCOCC5)c([N+](=O)[O-])c4)c(Oc4cnc5[nH]ccc5c4)c3)CC2)=C(c2ccc(Cl)cc2)C1 [Venetoclax] + CS(=O)(=O)CCNCc1ccc(-c2ccc3ncnc(Nc4ccc(OCc5cccc(F)c5)c(Cl)c4)c3c2)o1 [Lapatinib] (first compound max 1 µM, 7x7, partner max 10 µM) | 0.244 | 0.444 | 0.534 | 0.229 | 0.192 | 0.207 | 0.223 | 0.208 | 0.322 | 0.242 | 0.113 | 0.468 | 0.967 | 0.368 | 0.345 | 0.509 | 0.201 | 0.246 | 0.25 | 0.823 |

— the supplement of paper PMC11061612
